Data published in patent US20250101041A1, “POSITIVE ALLOSTERIC MODULATORS OF THE MUSCARINIC ACETYLCHOLINE RECEPTOR M4” (Vanderbilt University, priority 2022, published 2025).

Target: T1, human mAChR M4 (Homo sapiens, UniProt P08173)
T1 construct: expressed in transfected cells; host or cells: CHO-K1 (American Type Culture Collection), stably expressing hM4 and Gqi5
T1 sequence (P08173 1-479): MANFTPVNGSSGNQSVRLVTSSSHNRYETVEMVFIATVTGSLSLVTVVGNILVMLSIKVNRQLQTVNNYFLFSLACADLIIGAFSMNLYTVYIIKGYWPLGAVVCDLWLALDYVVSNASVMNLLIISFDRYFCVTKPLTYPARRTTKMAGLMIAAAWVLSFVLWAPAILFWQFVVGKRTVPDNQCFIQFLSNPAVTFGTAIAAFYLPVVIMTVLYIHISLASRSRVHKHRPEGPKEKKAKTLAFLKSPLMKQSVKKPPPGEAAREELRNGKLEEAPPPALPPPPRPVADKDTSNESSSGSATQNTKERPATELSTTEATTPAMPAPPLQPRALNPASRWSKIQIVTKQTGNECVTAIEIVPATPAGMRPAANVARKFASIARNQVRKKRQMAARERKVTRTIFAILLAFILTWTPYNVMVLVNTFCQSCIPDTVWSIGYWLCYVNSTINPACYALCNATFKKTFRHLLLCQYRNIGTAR
Assay: mAChR M4 cell-based functional assay: calcium mobilization (Fluo-4, FDSS), potentiation of EC20 acetylcholine response in hM4-Gqi5 CHO-K1 cells
Settings: human M4; for Emax at 30 µM: CHO-K1, % ACh maximum at 30 μM; for EC50: potentiation of EC20 acetylcholine response, calcium mobilization
Summary of the method: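 CHO-K1 cells stably co-expressing human M4 and chimeric Gqi5, loaded with Fluo-4 AM (50 min, 37 °C). Compounds in 11-point 1:3 series added first; EC20 acetylcholine added at 144 s and again at 230 s. Calcium read on FDSS at 1 Hz; EC50 and Emax from four-parameter logistic fit of potentiated EC20 response.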

| Compound | Emax at 30 µM | EC50 |
| --- | --- | --- |
| Cc1c(N2CCc3ncc(-c4ccc(C5CC5)nc4)cc3C2)nn2c(=O)cc(C(F)F)nc2c1C [Compound 1-94, 7-(3-(6-cyclopropylpyridin-3-yl)-7,8-dihydro-1,6-naphthyridin-6(5H)-yl)-2-(difluoromethyl)-8,9-dimethyl-4H-pyrimido[1,2-b]pyridazin-4-one] | 79% | 122 nM |
| Cc1ccncc1-c1cnc2c(c1)CN(c1nn3c(=O)ccnc3c(C)c1C)CC2 [Compound 1-95, 8,9-dimethyl-7-(3-(4-methylpyridin-3-yl)-7,8-dihydro-1,6-naphthyridin-6(5H)-yl)-4H-pyrimido[1,2-b]pyridazin-4-one] | 99% | 68 nM |
| CCc1ccncc1-c1cnc2c(c1)CN(c1nn3c(=O)ccnc3c(C)c1C)CC2 [Compound 1-96, 7-(3-(4-ethylpyridin-3-yl)-7,8-dihydro-1,6-naphthyridin-6(5H)-yl)-8,9-dimethyl-4H-pyrimido[1,2-b]pyridazin-4-one] | 63% | 37 nM |
| Cc1c(N2CCc3ncc(-c4ccc(N5CCCCC5)nc4)cc3C2)nn2c(=O)ccnc2c1C [Compound 1-97, 8,9-dimethyl-7-(3-(6-(piperidin-1-yl)pyridin-3-yl)-7,8-dihydro-1,6-naphthyridin-6(5H)-yl)-4H-pyrimido[1,2-b]pyridazin-4-one] | 79% | 397 nM |
| Cc1c(N2CCc3ncc(-c4ccc(-n5ccnc5)nc4)cc3C2)nn2c(=O)ccnc2c1C [Compound 1-98, 7-(3-(6-(1H-imidazol-1-yl)pyridin-3-yl)-7,8-dihydro-1,6-naphthyridin-6(5H)-yl)-8,9-dimethyl-4H-pyrimido[1,2-b]pyridazin-4-one] | 86% | 534 nM |
| Cc1c(N2CCc3ncc(-c4ccc(N5CCOCC5)nc4)cc3C2)nn2c(=O)ccnc2c1C [Compound 1-99, 8,9-dimethyl-7-(3-(6-morpholinopyridin-3-yl)-7,8-dihydro-1,6-naphthyridin-6(5H)-yl)-4H-pyrimido[1,2-b]pyridazin-4-one] | 88% | 190 nM |
| Cc1ccc(-c2cnc3c(c2)CN(c2nn4c(=O)c(C)cnc4c(C)c2C)CC3)cn1 [Compound 1-100, 3,8,9-trimethyl-7-(3-(6-methylpyridin-3-yl)-7,8-dihydro-1,6-naphthyridin-6(5H)-yl)-4H-pyrimido[1,2-b]pyridazin-4-one] | 92% | 134 nM |
| Cc1ncccc1-c1cnc2c(c1)CN(c1nn3c(=O)ccnc3c(C)c1C)CC2 [Compound 1-101, 8,9-dimethyl-7-(3-(2-methylpyridin-3-yl)-7,8-dihydro-1,6-naphthyridin-6(5H)-yl)-4H-pyrimido[1,2-b]pyridazin-4-one] | 93% | 332 nM |
| Cc1c(N2CCc3ncc(-c4cncc(C(F)(F)F)c4)cc3C2)nn2c(=O)ccnc2c1C [Compound 1-102, 8,9-dimethyl-7-(3-(5-(trifluoromethyl)pyridin-3-yl)-7,8-dihydro-1,6-naphthyridin-6(5H)-yl)-4H-pyrimido[1,2-b]pyridazin-4-one] | 83% | 733 nM |
| Cc1c(N2CCc3ncc(-c4cncc(F)c4)cc3C2)nn2c(=O)ccnc2c1C [Compound 1-103, 7-(3-(5-fluoropyridin-3-yl)-7,8-dihydro-1,6-naphthyridin-6(5H)-yl)-8,9-dimethyl-4H-pyrimido[1,2-b]pyridazin-4-one] | 93% | 449 nM |
| Cc1c(N2CCc3ncc(-c4cncnc4)cc3C2)nn2c(=O)ccnc2c1C [Compound 1-104, 8,9-dimethyl-7-(3-(pyrimidin-5-yl)-7,8-dihydro-1,6-naphthyridin-6(5H)-yl)-4H-pyrimido[1,2-b]pyridazin-4-one] | 90% | 696 nM |
| CCc1cc(=O)n2nc(N3CCc4ncc(C(F)(F)F)cc4C3)c(C)c(C)c2n1 [Compound 1-105, 2-ethyl-8,9-dimethyl-7-(3-(trifluoromethyl)-7,8-dihydro-1,6-naphthyridin-6(5H)-yl)-4H-pyrimido[1,2-b]pyridazin-4-one] | 99% | 162 nM |
| CCc1cc(=O)n2nc(N3CCc4ncc(-c5ccc(C)nc5)cc4C3)c(C)c(C)c2n1 [Compound 1-106, 2-ethyl-8,9-dimethyl-7-(3-(6-methylpyridin-3-yl)-7,8-dihydro-1,6-naphthyridin-6(5H)-yl)-4H-pyrimido[1,2-b]pyridazin-4-one] | 104% | 108 nM |
| Cc1c(N2CCc3ncc(C(F)(F)F)cc3C2)nn2c(=O)cc(C(C)C)nc2c1C [Compound 1-107, 2-isopropyl-8,9-dimethyl-7-(3-(trifluoromethyl)-7,8-dihydro-1,6-naphthyridin-6(5H)-yl)-4H-pyrimido[1,2-b]pyridazin-4-one] | 102% | 178 nM |
| Cc1ccc(-c2cnc3c(c2)CN(c2nn4c(=O)cc(C(C)C)nc4c(C)c2C)CC3)cn1 [Compound 1-108, 2-isopropyl-8,9-dimethyl-7-(3-(6-methylpyridin-3-yl)-7,8-dihydro-1,6-naphthyridin-6(5H)-yl)-4H-pyrimido[1,2-b]pyridazin-4-one] | 94% | 158 nM |

More lines, now with the values ahead:

| Emax at 30 µM | EC50 | Compound |
| --- | --- | --- |
| 79% | 60 nM | COCc1cc(=O)n2nc(N3CCc4ncc(C(F)(F)F)cc4C3)c(C)c(C)c2n1 [Compound 1-109, 2-(Methoxymethyl)-8,9-dimethyl-7-(3-(trifluoromethyl)-7,8-dihydro-1,6-naphthyridin-6(5H)-yl)-4H-pyrimido[1,2-b]pyridazin-4-one] |
| 95% | 177 nM | COCc1cc(=O)n2nc(N3CCc4ncc(-c5ccc(C)nc5)cc4C3)c(C)c(C)c2n1 [Compound 1-110, 2-(methoxymethyl)-8,9-dimethyl-7-(3-(6-methylpyridin-3-yl)-7,8-dihydro-1,6-naphthyridin-6(5H)-yl)-4H-pyrimido[1,2-b]pyridazin-4-one] |
| 61% | 2450 nM | Cc1c(C2CC2)c(N2CCc3ncc(C(F)(F)F)cc3C2)nn2c(=O)ccnc12 [Compound 1-111, 8-cyclopropyl-9-methyl-7-(3-(trifluoromethyl)-7,8-dihydro-1,6-naphthyridin-6(5H)-yl)-4H-pyrimido[1,2-b]pyridazin-4-one] |
| 67% | 668 nM | Cc1ccc(-c2cnc3c(c2)CN(c2nn4c(=O)ccnc4c(C)c2C2CC2)CC3)cn1 [Compound 1-112, 8-cyclopropyl-9-methyl-7-(3-(6-methylpyridin-3-yl)-7,8-dihydro-1,6-naphthyridin-6(5H)-yl)-4H-pyrimido[1,2-b]pyridazin-4-one] |
| 73% | 262 nM | Cc1c(N2CCc3ncc(C(F)(F)F)cc3C2)nn2c(=O)ccnc2c1C1CC1 [Compound 1-113, 9-cyclopropyl-8-methyl-7-(3-(trifluoromethyl)-7,8-dihydro-1,6-naphthyridin-6(5H)-yl)-4H-pyrimido[1,2-b]pyridazin-4-one] |
| 73% | 615 nM | Cc1ccc(-c2cnc3c(c2)CN(c2nn4c(=O)ccnc4c(C4CC4)c2C)CC3)cn1 [Compound 1-114, 9-cyclopropyl-8-methyl-7-(3-(6-methylpyridin-3-yl)-7,8-dihydro-1,6-naphthyridin-6(5H)-yl)-4H-pyrimido[1,2-b]pyridazin-4-one] |
| 91% | 313 nM | Cc1ncccc1-c1cnc2c(c1)CN(c1nn3c(=O)cc(C(F)F)nc3c(C)c1C)CC2 [Compound 1-115, 2-(difluoromethyl)-8,9-dimethyl-7-(3-(2-methylpyridin-3-yl)-7,8-dihydro-1,6-naphthyridin-6(5H)-yl)-4H-pyrimido[1,2-b]pyridazin-4-one] |
| 93% | 19 nM | Cc1c(N2CCc3ncc(-c4cnccn4)cc3C2)nn2c(=O)cc(C(F)F)nc2c1C [Compound 1-116, 2-(difluoromethyl)-8,9-dimethyl-7-(3-(pyrazin-2-yl)-7,8-dihydro-1,6-naphthyridin-6(5H)-yl)-4H-pyrimido[1,2-b]pyridazin-4-one] |
| 90% | 198 nM | Cc1cc(=O)n2nc(N3CCc4ncc(-c5cnccc5C)cc4C3)c(C)c(C)c2n1 [Compound 1-117, 2,8,9-trimethyl-7-(3-(4-methylpyridin-3-yl)-7,8-dihydro-1,6-naphthyridin-6(5H)-yl)-4H-pyrimido[1,2-b]pyridazin-4-one] |
| 83% | 6070 nM | Cc1cc(=O)n2nc(N3CCc4ncc(-c5cncnc5)cc4C3)c(C)c(C)c2n1 [Compound 1-118, 2,8,9-trimethyl-7-(3-(pyrimidin-5-yl)-7,8-dihydro-1,6-naphthyridin-6(5H)-yl)-4H-pyrimido[1,2-b]pyridazin-4-one] |
| 85% | – | Cc1cncc(-c2cnc3c(c2)CN(c2nn4c(=O)cc(C(F)F)nc4c(C)c2C)CC3)c1 [Compound 1-119, 2-(difluoromethyl)-8,9-dimethyl-7-(3-(5-methylpyridin-3-yl)-7,8-dihydro-1,6-naphthyridin-6(5H)-yl)-4H-pyrimido[1,2-b]pyridazin-4-one] |
